In US10633407B2, “14-membered ketolides and methods of their preparation and use” (President and Fellows of Harvard College, priority 2014, dated 2020):
≈ marks a conversion by molar mass, not a printed value.

Key:
Test in all cases: CLSI broth dilution MIC determination
Format in all cases: cell-based
[1] = system: E. faecalis Vancomycin-resistant; details: E. faecalis Vancomycin-resistant; Gram-positive
K. pneumoniae SHV-12 = details: Gram-negative
[2] = system: P. aeruginosa HPA101-1477; details: Gram-negative
S. pyogenes ATCC 19615 = details: S. pyogenes ATCC 19615; Gram-positive
E. faecalis ATCC 29212 = details: E. faecalis ATCC 29212; Gram-positive
K. pneumoniae KPC-2 = details: Gram-negative
A. baumannii ATCC 19606 = details: A. baumannii ATCC 19606; Gram-negative
[3] = system: A. baumannii imipenem-resistant; details: Gram-negative
P. aeruginosa ATCC 27853 = details: P. aeruginosa ATCC 27853; Gram-negative
[4] = system: H. influenzae Erythro >4, Azithro 1; details: H. influenzae Erythro >4, Azithro 1; Gram-negative
Source text: MIC data was collected for the novel macrolides that this platform has produced against over 21 unique strains of B. subtilis, E. coli, S. aureus, S. pneumoniae, and H. influenzae, including several multidrug-resistant strains, with a special focus on macrolide resistant mechanisms (vide supra). […] CLSI standard procedures for broth dilution MIC determination were used. […] These genotypes can be constitutive or inducible.

K. pneumoniae ATCC 10031 = details: K. pneumoniae ATCC 10031; Gram-negative
[5] = system: S. pneumoniae mef A genotype (second strain so labelled); details: Gram-positive
In short: (§1)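 Compounds are serially diluted in broth per CLSI standard methods to give the MIC; azithromycin and solithromycin act as comparator macrolides in many cases, and resistance genotypes may be inducible or constitutive.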

E. coli CTX-M-14 = details: Gram-negative
In short: as §1

E. coli TEM-1 = details: E. coli TEM-1; Gram-negative
In short: as §1

S. aureus erm A genotype = details: S. aureus erm A genotype; Gram-positive
In short: as §1

H. influenzae ATCC49247 = details: Gram-negative
In short: as §1

S. aureus MRSA: USA100 = details: S. aureus MRSA: USA100; Gram-positive
In short: as §1

S. aureus MRSA: USA300 = details: S. aureus MRSA: USA300; Gram-positive
In short: as §1

S. aureus USA600, GISA = details: S. aureus USA600, GISA; Gram-positive
In short: as §1

[6] = system: S. pneumoniae erm B + mef A genotype; details: S. pneumoniae erm B + mef A genotype; Gram-positive
In short: as §1

S. pneumoniae ATCC 49619 = details: S. pneumoniae ATCC 49619; Gram-positive
In short: as §1

K. pneumoniae TEM-10 = details: Gram-negative
E. coli ATCC 25922 = details: E. coli ATCC 25922; Gram-negative
In short: as §1

E. coli NDM-1 = details: Gram-negative
In short: as §1

S. aureus ATCC 29213 = details: S. aureus ATCC 29213; Gram-positive
In short: as §1

[7] = system: S. pyogenes Macrolide-resistant; details: S. pyogenes Macrolide-resistant; Gram-positive
[8] = system: A. baumannii chromosomal class C; details: Gram-negative
A. baumannii IMP-4 = details: Gram-negative

Compound | MIC [1] [µg/mL] | MIC (K. pneumoniae SHV-12) [µg/mL] | MIC [2] [µg/mL] | MIC (S. pyogenes ATCC 19615) [µg/mL] | MIC (E. faecalis ATCC 29212) [µg/mL] | MIC (K. pneumoniae KPC-2) [µg/mL] | MIC (A. baumannii ATCC 19606) [µg/mL] | MIC [3] [µg/mL] | MIC (P. aeruginosa ATCC 27853) [µg/mL] | MIC [4] [µg/mL] | MIC (K. pneumoniae ATCC 10031) [µg/mL] | MIC [5] [µg/mL] | MIC (E. coli CTX-M-14) [µg/mL] | MIC (E. coli TEM-1) [µg/mL] | MIC (S. aureus erm A genotype) [µg/mL] | MIC (H. influenzae ATCC49247) [µg/mL] | MIC (S. aureus MRSA: USA100) [µg/mL] | MIC (S. aureus MRSA: USA300) [µg/mL] | MIC (S. aureus USA600, GISA) [µg/mL] | MIC [6] [µg/mL] | other results
CC[C@H]1OC(=O)[C@H](C)C(=O)[C@H](C)[C@@H](O[C@@H]2OC(C)CC(N(C)C)C2O)[C@](C)(OC)C[C@@H](C)C(=O)[C@H](C)[C@H]2N(CC3CC3Cn3cc(-c4cccc(N)c4)nn3)C(=O)O[C@]12C (single isomer, unassigned) [FSM-100428] | > 32 | > 32 | > 32 | < 0.0312 | < 0.0312 | > 32 | 16 (≈ 19.1 µM) | 16 (≈ 19.1 µM) | > 32 | 2 (≈ 2.38 µM) | 16 (≈ 19.1 µM) | < 0.0312 | > 32 | 32 (≈ 38.1 µM) | > 32 | 4 (≈ 4.77 µM) | > 32 | 4 (≈ 4.77 µM) | > 32 | 0.0625 | MIC (S. pneumoniae ATCC 49619): < 0.0312 µg/mL; MIC (K. pneumoniae TEM-10): 32 µg/mL (≈ 38.1 µM); MIC (E. coli ATCC 25922): 32 µg/mL (≈ 38.1 µM); MIC (E. coli NDM-1): > 32 µg/mL; MIC (S. aureus ATCC 29213): < 0.0312 µg/mL; MIC [7]: < 0.0312 µg/mL; MIC [8]: 16 µg/mL (≈ 19.1 µM); MIC (A. baumannii IMP-4): > 32 µg/mL
CC[C@H]1OC(=O)[C@H](C)C(=O)[C@H](C)[C@@H](O[C@@H]2OC(C)CC(N(C)C)C2O)[C@](C)(OC)C[C@@H](C)C(=O)[C@H](C)[C@H]2N(CC3CC3Cn3cc(-c4cccc(N)c4)nn3)C(=O)O[C@]12C (single isomer, unassigned) [FSM-100434] | > 32 | > 32 | > 32 | < 0.0312 | < 0.0312 | > 32 | 16 (≈ 19.1 µM) | 16 (≈ 19.1 µM) | > 32 | > 32 | 32 (≈ 38.1 µM) | 0.125 (≈ 0.149 µM) | > 32 | > 32 | > 32 | > 32 | > 32 | > 32 | > 32 | 1 | MIC (S. pneumoniae ATCC 49619): < 0.0312 µg/mL; MIC (K. pneumoniae TEM-10): > 32 µg/mL; MIC (E. coli ATCC 25922): > 32 µg/mL; MIC (E. coli NDM-1): > 32 µg/mL; MIC (S. aureus ATCC 29213): 0.25 µg/mL (≈ 0.298 µM); MIC [7]: < 0.0312 µg/mL; MIC [8]: 16 µg/mL (≈ 19.1 µM); MIC (A. baumannii IMP-4): > 32 µg/mL
CC[C@H]1OC(=O)[C@H](C)C(=O)[C@H](C)[C@@H](O[C@@H]2OC(C)CC(N(C)C)C2O)[C@](C)(OC)C[C@@H](C)C(=O)[C@H](C)[C@H]2N(C/C=C/Cn3cc(-c4nccs4)nn3)C(=O)O[C@]12C (stereo partly shown) [FSM-11559] | > 32 | > 32 | > 32 | ≤ 0.0312 | ≤ 0.0312 | > 32 | 16 (≈ 19.6 µM) | 32 (≈ 39.2 µM) | > 32 | 4 (≈ 4.9 µM) | 4 (≈ 4.9 µM) | 0.125 (≈ 0.153 µM) | > 32 | 32 (≈ 39.2 µM) | > 32 | 4 (≈ 4.9 µM) | > 32 | 4 (≈ 4.9 µM) | > 32 | 1 | MIC (S. pneumoniae ATCC 49619): ≤ 0.0312 µg/mL; MIC (K. pneumoniae TEM-10): > 32 µg/mL; MIC (E. coli ATCC 25922): > 32 µg/mL; MIC (E. coli NDM-1): > 32 µg/mL; MIC (S. aureus ATCC 29213): 0.125 µg/mL (≈ 0.153 µM); MIC [7]: 0.125 µg/mL (≈ 0.153 µM); MIC [8]: 16 µg/mL (≈ 19.6 µM); MIC (A. baumannii IMP-4): > 32 µg/mL
CC[C@H]1OC(=O)[C@@](C)(F)C(=O)[C@H](C)[C@@H](O[C@@H]2OC(C)CC(N(C)C)C2O)[C@](C)(OC)C[C@@H](C)C(=O)[C@H](C)[C@H]2N(C/C=C/Cn3cc(-c4nccs4)nn3)C(=O)O[C@]12C (stereo partly shown) [FSM-11562] | > 32 | > 32 | > 32 | ≤ 0.0312 | ≤ 0.0312 | > 32 | 8 (≈ 9.58 µM) | 8 (≈ 9.58 µM) | > 32 | 2 (≈ 2.4 µM) | 4 (≈ 4.79 µM) | 0.0625 (≈ 0.0748 µM) | > 32 | 16 (≈ 19.2 µM) | > 32 | 4 (≈ 4.79 µM) | > 32 | 1 (≈ 1.2 µM) | > 32 | 0.25 | MIC (S. pneumoniae ATCC 49619): ≤ 0.0312 µg/mL; MIC (K. pneumoniae TEM-10): 32 µg/mL (≈ 38.3 µM); MIC (E. coli ATCC 25922): 16 µg/mL (≈ 19.2 µM); MIC (E. coli NDM-1): > 32 µg/mL; MIC (S. aureus ATCC 29213): 0.0625 µg/mL (≈ 0.0748 µM); MIC [7]: 0.125 µg/mL (≈ 0.15 µM); MIC [8]: 8 µg/mL (≈ 9.58 µM); MIC (A. baumannii IMP-4): > 32 µg/mL
CC[C@H]1OC(=O)[C@H](C)C(=O)[C@H](C)[C@@H](O[C@@H]2OC(C)CC(N(C)C)C2O)[C@](C)(OC)C[C@@H](C)C(=O)[C@H](C)[C@H]2N(CC#CCn3cc(-c4cccc(N)c4)nn3)C(=O)O[C@]12C (stereo partly shown) [FSM-100239] | 16 (≈ 19.4 µM) | > 32 | > 32 | ≤ 0.0312 | ≤ 0.0312 | > 32 | 8 (≈ 9.72 µM) | 4 (≈ 4.86 µM) | > 32 | 1 (≈ 1.22 µM) | 4 (≈ 4.86 µM) | ≤ 0.0312 | > 32 | 16 (≈ 19.4 µM) | > 32 | 1 (≈ 1.22 µM) | > 32 | 0.25 (≈ 0.304 µM) | > 32 | 0.0625 | MIC (S. pneumoniae ATCC 49619): ≤ 0.0312 µg/mL; MIC (K. pneumoniae TEM-10): 32 µg/mL (≈ 38.9 µM); MIC (E. coli ATCC 25922): 16 µg/mL (≈ 19.4 µM); MIC (E. coli NDM-1): > 32 µg/mL; MIC (S. aureus ATCC 29213): ≤ 0.0312 µg/mL; MIC [7]: ≤ 0.0312 µg/mL; MIC [8]: 2 µg/mL (≈ 2.43 µM); MIC (A. baumannii IMP-4): > 32 µg/mL
CC[C@H]1OC(=O)[C@@](C)(F)C(=O)[C@H](C)[C@@H](O[C@@H]2OC(C)CC(N(C)C)C2O)[C@](C)(OC)C[C@@H](C)C(=O)[C@H](C)[C@H]2N(C/C=C/Cn3cc(-c4cnc(N)s4)nn3)C(=O)O[C@]12C (stereo partly shown) [FSM-100240] | 8 (≈ 9.41 µM) | > 32 | > 32 | ≤ 0.0312 | ≤ 0.0312 | > 32 | 32 (≈ 37.6 µM) | 32 (≈ 37.6 µM) | > 32 | 1 (≈ 1.18 µM) | 4 (≈ 4.71 µM) | 0.25 (≈ 0.294 µM) | > 32 | 32 (≈ 37.6 µM) | > 32 | 1 (≈ 1.18 µM) | > 32 | 1 (≈ 1.18 µM) | > 32 | 0.125 | MIC (S. pneumoniae ATCC 49619): ≤ 0.0312 µg/mL; MIC (K. pneumoniae TEM-10): 32 µg/mL (≈ 37.6 µM); MIC (E. coli ATCC 25922): > 32 µg/mL; MIC (E. coli NDM-1): > 32 µg/mL; MIC (S. aureus ATCC 29213): ≤ 0.0312 µg/mL; MIC [7]: 0.25 µg/mL (≈ 0.294 µM); MIC [8]: 16 µg/mL (≈ 18.8 µM); MIC (A. baumannii IMP-4): > 32 µg/mL
CC[C@H]1OC(=O)[C@H](C)C(=O)[C@H](C)[C@@H](O[C@@H]2OC(C)CC(N(C)C)C2O)[C@](C)(OC)C[C@@H](C)C(=O)[C@H](C)[C@H]2N(C/C=C/Cn3cc(-c4ccccn4)nn3)C(=O)O[C@]12C (stereo partly shown) [FSM-100341] | > 32 | > 32 | > 32 | < 0.0312 | < 0.0312 | > 32 | 16 (≈ 19.7 µM) | 16 (≈ 19.7 µM) | > 32 | 1 (≈ 1.23 µM) | 8 (≈ 9.86 µM) | < 0.0312 | > 32 | 32 (≈ 39.5 µM) | > 32 | 1 (≈ 1.23 µM) | > 32 | 2 (≈ 2.47 µM) | > 32 | 0.25 | MIC (S. pneumoniae ATCC 49619): < 0.0312 µg/mL; MIC (K. pneumoniae TEM-10): 32 µg/mL (≈ 39.5 µM); MIC (E. coli ATCC 25922): > 32 µg/mL; MIC (E. coli NDM-1): > 32 µg/mL; MIC (S. aureus ATCC 29213): < 0.0312 µg/mL; MIC [7]: < 0.0312 µg/mL; MIC [8]: 32 µg/mL (≈ 39.5 µM); MIC (A. baumannii IMP-4): > 32 µg/mL
